The test concerns human hepatoma cells (HEP-G2). Description: Inhibition of 14C-acetate incorporation in digitonin-precipitatable steroids in HEP-G2 cells. Format: cell-based. The following applies: for percent change in 14C-acetate incorporation into sterols at 0.1 µM / percent change in 14C-acetate incorporation into sterols at 0.01 µM: Homo sapiens; for percent change in 14C-acetate incorporation into sterols at 0.1 µM: HepG2, 10^-7 mol/l; for percent change in 14C-acetate incorporation into sterols at 0.01 µM: HepG2, 10^-8 mol/l. On the procedure:
I. Measurement of the inhibition of ^14 C-acetate incorporation in digitonin-precipitatable steroids:
After 3 days of culture, human hepatoma cells (HEP-G2) are stimulated for 16 hours in cholesterol-free medium. The substances to be tested (dissolved in dimethyl sulphoxide, final concentration 0.1%) are added during this stimulation phase. After the addition of 200 μmol/l of 2-^14 C-acetate, the mixture is then reincubated at 37° C. for a further 2 hours.
The cells are detached and the sterol esters are hydrolyzed and, after extraction, sterols are precipitated using digitonin. The ^14 C-acetate incorporated into digitonin-precipitatable sterols is determined by scintillation measurement.
The investigation of the inhibitory action was carried out at test concentrations of 10^-7 mol/l and 10^-8 mol/l. The test results of the following compounds A to AG of the general formula I are indicated at these test concentrations by way of example: […]

Each structure is given as a SMILES string.

The results in this text go back to patent US5466687A, “Arylidene-1-azacycloalkanes and arylalkyl-1-azacyclo-alkanes, their salts, medicaments containing these compounds and their use, and processes for their preparation” (priority 1992, dated 1995).

With `O=C(c1ccccc1)N1CCC(=Cc2ccc(C3=NCCO3)cc2)CC1` [AA, 1-benzoyl-4-[4-(2-oxazolin-2-yl)benzylidene]piperidine], the percent change in 14C-acetate incorporation into sterols at 0.1 µM was -70% and the percent change in 14C-acetate incorporation into sterols at 0.01 µM is -25%.
Taken in the same sequence, the figures for `CC(C)(C)c1ccc(C(=O)N2CCC(=Cc3ccc(C4=NCCO4)cc3)CC2)cc1` [AB, 1-(4-tert.butylbenzoyl)-4-[4-(2-oxazolin-2-yl)benzylidene]piperidine] were -18% and -6%.
Taken in the same sequence, the figures for `COc1ccc(C(=O)N2CCC(=Cc3ccc(C4=NCCO4)cc3)CC2)cc1` [AC, 1-(4-methoxybenzoyl)-4-[4-(2-oxazolin-2-yl)benzylidene]piperidine] were -25% and -16%.
Taken in the same sequence, the figures for `O=C(c1ccc(Br)cc1)N1CCC(=Cc2ccc(C3=NCCO3)cc2)CC1` [AD, 1-(4-bromobenzoyl)-4-[4-(2-oxazolin-2-yl)benzylidene]piperidine] were -85% and -44%.
On to `O=C(c1ccc([N+](=O)[O-])cc1)N1CCC(=Cc2ccc(C3=NCCO3)cc2)CC1` [AE, 1-(4-nitrobenzoyl)-4-[4-(2-oxazolin-2-yl)benzylidene]piperidine], for which the percent change in 14C-acetate incorporation into sterols at 0.1 µM was -71% and the percent change in 14C-acetate incorporation into sterols at 0.01 µM is -22%.
Consider `O=C(Cc1ccc(Cl)cc1)N1CCC(=Cc2ccc(C3=NCCO3)cc2)CC1` [AF, 1-(4-chlorophenylacetyl)-4-[4-(2-oxazolin-2-yl)benzylidene]piperidine], for which the percent change in 14C-acetate incorporation into sterols at 0.1 µM was -63% and the percent change in 14C-acetate incorporation into sterols at 0.01 µM was -22%.
Take `O=C(c1cccc2ccccc12)N1CCC(=Cc2ccc(C3=NCCO3)cc2)CC1` [AG, 1-(1-naphthylcarbonyl)-4-[4-(2-oxazolin-2-yl)benzylidene]piperidine]: the percent change in 14C-acetate incorporation into sterols at 0.1 µM was -67% and the percent change in 14C-acetate incorporation into sterols at 0.01 µM is -30%.
Consider `O=S(=O)(c1ccc(Cl)cc1)N1CCC(=Cc2ccc(C3=NCCO3)cc2)CC1` [N, 1-(4-chlorobenzenesulphonyl)-4-[4-(2-oxazolin-2-yl)benzylidene]piperidine], for which the percent change in 14C-acetate incorporation into sterols at 0.1 µM is -86% and the percent change in 14C-acetate incorporation into sterols at 0.01 µM was -63%.
With `O=S(=O)(c1ccc(Cl)cc1)N1CCC(=Cc2ccc(C3=NCCN3)cc2)CC1` [O, 1-(4-chlorobenzenesulphonyl)-4-[4-(2-imidazolin-2-yl)benzylidene]piperidine], the percent change in 14C-acetate incorporation into sterols at 0.1 µM is -45% and the percent change in 14C-acetate incorporation into sterols at 0.01 µM is -1%.
With `O=C(c1ccc(Cl)cc1)N1CCC(Cc2ccc(C3=NCCS3)cc2)CC1` [P, 1-(4-chlorobenzoyl)-4-[4-(2-thiazolin-2-yl)benzyl]piperidine], the percent change in 14C-acetate incorporation into sterols at 0.1 µM is -14% and the percent change in 14C-acetate incorporation into sterols at 0.01 µM is -5%.
Consider `C[C@H]1CN=C(c2ccc(C=C3CCN(C(=O)c4ccc(Cl)cc4)CC3)cc2)O1` [Q, 1-(4-chlorobenzoyl)-4-[4-(S-5-methyl-2-oxazolin-2-yl)benzylidene]piperidine], for which the percent change in 14C-acetate incorporation into sterols at 0.1 µM was -89% and the percent change in 14C-acetate incorporation into sterols at 0.01 µM was -44%.
As to `C[C@@H]1COC(c2ccc(C=C3CCN(C(=O)c4ccc(Cl)cc4)CC3)cc2)=N1` [R, 1-(4-chlorobenzoyl)-4-[4-(R-4-methyl-2-oxazolin-2-yl)benzylidene]piperidine], the percent change in 14C-acetate incorporation into sterols at 0.1 µM is -88% and the percent change in 14C-acetate incorporation into sterols at 0.01 µM is -57%.
As for `O=C(c1ccc(Cl)cc1)N1CCC(=Cc2ccc(C3=NCC(c4ccccc4)O3)cc2)CC1` (stereo not shown) [S, 1-(4-chlorobenzoyl)-4-[4-(5-phenyl-2-oxazolin-2-yl)benzylidene]piperidine], the percent change in 14C-acetate incorporation into sterols at 0.1 µM is -24% and the percent change in 14C-acetate incorporation into sterols at 0.01 µM is 0%.
On to `CCN(CC)CC1CN=C(c2ccc(C=C3CCN(C(=O)c4ccc(Cl)cc4)CC3)cc2)O1` (stereo not shown) [T, 1-(4-chlorobenzoyl)-4-[4-(5-diethylaminomethyl-2-oxazolin-2-yl)benzylidene]piperidine], for which the percent change in 14C-acetate incorporation into sterols at 0.1 µM is -57% and the percent change in 14C-acetate incorporation into sterols at 0.01 µM was -29%.
Consider `O=C(c1ccc(Cl)cc1)N1CCC(=Cc2ccc(C3=NC(CO)CO3)cc2)CC1` (stereo not shown) [U, 1-(4-chlorobenzoyl)-4-[4-(4-hydroxymethyl-2-oxazolin-2-yl)benzylidene]piperidine], for which the percent change in 14C-acetate incorporation into sterols at 0.1 µM is -60% and the percent change in 14C-acetate incorporation into sterols at 0.01 µM was -21%.
As to `O=C(c1ccc(Cl)cc1)N1CCC(=Cc2ccc(C3=N[C@@H](Cc4ccccc4)CO3)cc2)CC1` [V, 4-[4-(S-4-benzyl-2-oxazolin-2-yl)benzylidene]-1-(4-chlorobenzoyl)piperidine], the percent change in 14C-acetate incorporation into sterols at 0.1 µM was -29% and the percent change in 14C-acetate incorporation into sterols at 0.01 µM is -15%.
Taken in the same sequence, the figures for `CC(=C1CCN(C(=O)c2ccc(Cl)cc2)CC1)c1ccc(C2=NCCO2)cc1` [W, 1-(4-chlorobenzoyl)-4-[4-(2-oxazolin-2-yl)-α-methylbenzylidene]piperidine] were -77% and -35%.
For `O=C(c1ccc(Cl)s1)N1CCC(=Cc2ccc(C3=NCCO3)cc2)CC1` [X, 1-(5-chloro-2-thienoyl)-4-[4-(2-oxazolin-2-yl)benzylidene]piperidine], the “inhibition of 14C-acetate incorporation” value is reported as -84% (10^-7 mol/l) and -35% (10^-8 mol/l).
With `N#Cc1ccc(C(=O)N2CCC(=Cc3ccc(C4=NCCO4)cc3)CC2)cc1` [Y, 1-(4-cyanobenzoyl)-4-[4-(2-oxazolin-2-yl)benzylidene]piperidine], the percent change in 14C-acetate incorporation into sterols at 0.1 µM was -74% and the percent change in 14C-acetate incorporation into sterols at 0.01 µM was -51%.
Regarding `O=C(c1c(F)c(F)c(F)c(F)c1F)N1CCC(=Cc2ccc(C3=NCCO3)cc2)CC1` [Z, 4-[4-(2-oxazolin-2-yl)benzylidene]-1-(pentafluorobenzoyl)piperidine], the percent change in 14C-acetate incorporation into sterols at 0.1 µM was -45% and the percent change in 14C-acetate incorporation into sterols at 0.01 µM is -8%.
